US12077503B2, “Substituted cyclic amides and their use as herbicides” (FMC CORPORATION, priority 2015, dated 2024)

What was measured:
Assay type in all cases: in vivo
[1] = system: velvetleaf (Abutilon theophrasti); assay: Test G Post-Emergence Protocol; settings: Abutilon theophrasti, post-emergence, 312 h; for pest or weed control at 15.625 g/ha: 15.625 g ai/ha, evaluated after 13 days (100=total damage to plant; 0=no damage to plant), read-out: Velvetleaf damage rating; for pest or weed control at 62.5 g/ha: 62.5 g ai/ha, read-out: Velvetleaf damage rating (100=total damage to plant; 0=no damage to plant); for pest or weed control at 62.5 g/ha / pest or weed control at 250 g/ha: evaluated after 13 days; for pest or weed control at 250 g/ha: 250 g ai/ha, read-out: damage to plant, Velvetleaf (100=total damage to plant; 0=no damage to plant)
Outline: (§1)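 Scores run 0 (no damage) to 100 (total damage) and were taken 13 days after spraying. Plants had been raised in pots for 8 days under glasshouse control (24/16 °C, 14 h photoperiod, 65% humidity) and then treated at 15.625, 62.5 or 250 g/ha.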

corn (Zea mays) [2] = assay: Test G Post-Emergence Protocol; settings: Zea mays, post-emergence, 312 h; for plant injury at 15.625 g/ha: 15.625 g ai/ha, evaluated after 13 days (100=total damage to plant; 0=no damage to plant), read-out: Corn damage rating; for plant injury at 62.5 g/ha: 62.5 g ai/ha, read-out: Corn damage rating (100=total damage to plant; 0=no damage to plant); for plant injury at 62.5 g/ha / plant injury at 250 g/ha: evaluated after 13 days; for plant injury at 250 g/ha: 250 g ai/ha, read-out: damage to plant, Corn (100=total damage to plant; 0=no damage to plant)
Outline: as §1

[3] = system: giant foxtail (Setaria faberi); assay: Test G Post-Emergence Protocol; settings: Setaria faberi, post-emergence, 312 h; for pest or weed control at 15.625 g/ha: 15.625 g ai/ha, evaluated after 13 days (100=total damage to plant; 0=no damage to plant), read-out: Foxtail, Giant damage rating; for pest or weed control at 62.5 g/ha: 62.5 g ai/ha, read-out: Foxtail, Giant damage rating (100=total damage to plant; 0=no damage to plant); for pest or weed control at 62.5 g/ha / pest or weed control at 250 g/ha: evaluated after 13 days; for pest or weed control at 250 g/ha: 250 g ai/ha, read-out: damage to plant, Foxtail, Giant (100=total damage to plant; 0=no damage to plant)
Outline: as §1

[4] = system: redroot pigweed (Amaranthus retroflexus); assay: Test G Post-Emergence Protocol; settings: Amaranthus retroflexus, post-emergence, 312 h; for pest or weed control at 15.625 g/ha: 15.625 g ai/ha, evaluated after 13 days (100=total damage to plant; 0=no damage to plant), read-out: Pigweed, Redroot damage rating; for pest or weed control at 62.5 g/ha: 62.5 g ai/ha, read-out: Pigweed, Redroot damage rating (100=total damage to plant; 0=no damage to plant); for pest or weed control at 62.5 g/ha / pest or weed control at 250 g/ha: evaluated after 13 days; for pest or weed control at 250 g/ha: 250 g ai/ha, read-out: damage to plant, Pigweed, Redroot (100=total damage to plant; 0=no damage to plant)
Outline: as §1

[5] = system: barnyardgrass (Echinochloa crus-galli); assay: Test G Post-Emergence Protocol; settings: Echinochloa crus-galli, post-emergence, 312 h; for pest or weed control at 15.625 g/ha: 15.625 g ai/ha, evaluated after 13 days (100=total damage to plant; 0=no damage to plant), read-out: Barnyardgrass damage rating; for pest or weed control at 62.5 g/ha: 62.5 g ai/ha, read-out: Barnyardgrass damage rating (100=total damage to plant; 0=no damage to plant); for pest or weed control at 62.5 g/ha / pest or weed control at 250 g/ha: evaluated after 13 days; for pest or weed control at 250 g/ha: 250 g ai/ha, read-out: damage to plant, Barnyardgrass (100=total damage to plant; 0=no damage to plant)
Outline: as §1

[6] = system: ivy-leaved morning glory (Ipomoea hederacea); assay: Test G Post-Emergence Protocol; settings: Ipomoea, post-emergence, 312 h; for pest or weed control at 15.625 g/ha: 15.625 g ai/ha, evaluated after 13 days (100=total damage to plant; 0=no damage to plant), read-out: Morningglory, Ivy-leaved damage rating; for pest or weed control at 62.5 g/ha: 62.5 g ai/ha, read-out: Morningglory, Ivy-leaved damage rating (100=total damage to plant; 0=no damage to plant); for pest or weed control at 62.5 g/ha / pest or weed control at 250 g/ha: evaluated after 13 days; for pest or weed control at 250 g/ha: 250 g ai/ha, read-out: damage to plant, Morningglory, Ivy-leaved (100=total damage to plant; 0=no damage to plant)
Outline: as §1

[7] = system: velvetleaf (Abutilon theophrasti); assay: Test G Pre-Emergence Protocol; settings: Abutilon theophrasti, pre-emergence, 312 h, evaluated after 13 days; for pest or weed control at 15.625 g/ha: 15.625 g ai/ha; for pest or weed control at 15.625 g/ha / pest or weed control at 250 g/ha: read-out: Velvetleaf damage rating (100=total damage to plant; 0=no damage to plant); for pest or weed control at 62.5 g/ha: 62.5 g ai/ha, 100=total damage to plant, 0=no damage to plant, read-out: plant damage rating, Velvetleaf; for pest or weed control at 250 g/ha: 250 g ai/ha
Outline: (§2)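 Pots of seeds in standard soil were grown for one day in a glasshouse (24/16 °C day/night, 14 h light, 65% humidity), then sprayed with compound in acetone/water 50:50 with 0.5% Tween 20 at 15.625, 62.5 or 250 g/ha. Damage was scored after 13 days on a 0 (none) to 100 (total) scale.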

corn (Zea mays) [8] = assay: Test G Pre-Emergence Protocol; settings: Zea mays, pre-emergence, 312 h, evaluated after 13 days; for plant injury at 15.625 g/ha: 15.625 g ai/ha; for plant injury at 15.625 g/ha / plant injury at 250 g/ha: read-out: Corn damage rating (100=total damage to plant; 0=no damage to plant); for plant injury at 62.5 g/ha: 62.5 g ai/ha, 100=total damage to plant, 0=no damage to plant, read-out: plant damage rating, Corn; for plant injury at 250 g/ha: 250 g ai/ha
Outline: as §2

[9] = system: giant foxtail (Setaria faberi); assay: Test G Pre-Emergence Protocol; settings: Setaria faberi, pre-emergence, 312 h, evaluated after 13 days; for pest or weed control at 15.625 g/ha: 15.625 g ai/ha; for pest or weed control at 15.625 g/ha / pest or weed control at 250 g/ha: read-out: Foxtail, Giant damage rating (100=total damage to plant; 0=no damage to plant); for pest or weed control at 62.5 g/ha: 62.5 g ai/ha, 100=total damage to plant, 0=no damage to plant, read-out: plant damage rating, Foxtail, Giant; for pest or weed control at 250 g/ha: 250 g ai/ha
Outline: as §2

[10] = system: redroot pigweed (Amaranthus retroflexus); assay: Test G Pre-Emergence Protocol; settings: Amaranthus retroflexus, pre-emergence, 312 h, evaluated after 13 days; for pest or weed control at 15.625 g/ha: 15.625 g ai/ha; for pest or weed control at 15.625 g/ha / pest or weed control at 250 g/ha: read-out: Pigweed, Redroot damage rating (100=total damage to plant; 0=no damage to plant); for pest or weed control at 62.5 g/ha: 62.5 g ai/ha, 100=total damage to plant, 0=no damage to plant, read-out: plant damage rating, Pigweed, Redroot; for pest or weed control at 250 g/ha: 250 g ai/ha
Outline: as §2

[11] = system: barnyardgrass (Echinochloa crus-galli); assay: Test G Pre-Emergence Protocol; settings: Echinochloa crus-galli, pre-emergence, 312 h, evaluated after 13 days; for pest or weed control at 15.625 g/ha: 15.625 g ai/ha, read-out: Barnyard grass damage rating (100=total damage to plant; 0=no damage to plant); for pest or weed control at 62.5 g/ha: 62.5 g ai/ha, 100=total damage to plant, 0=no damage to plant, read-out: plant damage rating, Barnyardgrass; for pest or weed control at 250 g/ha: 250 g ai/ha, read-out: Barnyardgrass damage rating (100=total damage to plant; 0=no damage to plant)
Outline: as §2

[12] = system: ivy-leaved morning glory (Ipomoea hederacea); assay: Test G Pre-Emergence Protocol; settings: Ipomoea, pre-emergence, 312 h, evaluated after 13 days; for pest or weed control at 15.625 g/ha: 15.625 g ai/ha, read-out: Morning-glory, Ivy-leaved damage rating (100=total damage to plant; 0=no damage to plant); for pest or weed control at 62.5 g/ha: 62.5 g ai/ha, 100=total damage to plant, 0=no damage to plant, read-out: plant damage rating, Morningglory, Ivy-leaved; for pest or weed control at 250 g/ha: 250 g ai/ha, read-out: Morningglory, Ivy-leaved damage rating (100=total damage to plant; 0=no damage to plant)
Outline: as §2

Compound | pest or weed control at 15.625 g/ha [1] | pest or weed control at 62.5 g/ha [1] | pest or weed control at 250 g/ha [1] | plant injury at 15.625 g/ha (corn (Zea mays) [2]) | plant injury at 62.5 g/ha (corn (Zea mays) [2]) | plant injury at 250 g/ha (corn (Zea mays) [2]) | pest or weed control at 15.625 g/ha [3] | pest or weed control at 62.5 g/ha [3] | pest or weed control at 250 g/ha [3] | pest or weed control at 15.625 g/ha [4] | pest or weed control at 62.5 g/ha [4] | pest or weed control at 250 g/ha [4] | pest or weed control at 15.625 g/ha [5] | pest or weed control at 62.5 g/ha [5] | pest or weed control at 250 g/ha [5] | pest or weed control at 15.625 g/ha [6] | pest or weed control at 62.5 g/ha [6] | pest or weed control at 250 g/ha [6] | pest or weed control at 15.625 g/ha [7] | pest or weed control at 62.5 g/ha [7] | also measured
CN1C[C@H](c2ccc(C(F)(F)F)cc2)[C@@H](C(=O)Nc2ccccc2C(C)(C)C)C1=O (racemic) [Compound 1445] | 0% | 0% | 0% | 0% | 0% | 0% | 0% | 0% | 0% | 0% | 0% | 0% | 0% | 0% | 0% | 0% | 0% | 0% | 0% | 0% | pest or weed control at 250 g/ha [7]: 0%; plant injury at 15.625 g/ha (corn (Zea mays) [8]): 0%; plant injury at 62.5 g/ha (corn (Zea mays) [8]): 0%; plant injury at 250 g/ha (corn (Zea mays) [8]): 0%; pest or weed control at 15.625 g/ha [9]: 0%; pest or weed control at 62.5 g/ha [9]: 0%; pest or weed control at 250 g/ha [9]: 0%; pest or weed control at 15.625 g/ha [10]: 0%; pest or weed control at 62.5 g/ha [10]: 0%; pest or weed control at 250 g/ha [10]: 0%; pest or weed control at 15.625 g/ha [11]: 0%; pest or weed control at 62.5 g/ha [11]: 0%; pest or weed control at 250 g/ha [11]: 0%; pest or weed control at 15.625 g/ha [12]: 0%; pest or weed control at 62.5 g/ha [12]: 0%; pest or weed control at 250 g/ha [12]: 0%
Cc1ncsc1NC(=O)[C@@H]1C(=O)N(C)C[C@H]1c1ccc(C(F)(F)F)cc1 (racemic) [Compound 1635] | 0% | 0% | 0% | 0% | 0% | 0% | 0% | 10% | 40% | 0% | 0% | 10% | 0% | 0% | 30% | 0% | 0% | 0% | 0% | 0% | pest or weed control at 250 g/ha [7]: 0%; plant injury at 15.625 g/ha (corn (Zea mays) [8]): 0%; plant injury at 62.5 g/ha (corn (Zea mays) [8]): 0%; plant injury at 250 g/ha (corn (Zea mays) [8]): 0%; pest or weed control at 15.625 g/ha [9]: 0%; pest or weed control at 62.5 g/ha [9]: 0%; pest or weed control at 250 g/ha [9]: 0%; pest or weed control at 15.625 g/ha [10]: 0%; pest or weed control at 62.5 g/ha [10]: 0%; pest or weed control at 250 g/ha [10]: 0%; pest or weed control at 15.625 g/ha [11]: 0%; pest or weed control at 62.5 g/ha [11]: 0%; pest or weed control at 250 g/ha [11]: 0%; pest or weed control at 15.625 g/ha [12]: 0%; pest or weed control at 62.5 g/ha [12]: 0%; pest or weed control at 250 g/ha [12]: 0%
